# Assay results reported in patent publication US11602538B2, “Prophylaxis and treatment of cognitive dysfunction and decline” (The Florey Institute of Neuroscience and Mental Health, priority 2017, dated 2023).
# Entries after “also recorded” stand apart in the source; their conditions may differ.
# Legend:
# Type in all cases: in vivo, mouse
# [1] = system: mice receiving a controlled cortical impact traumatic brain injury (TBI); test: Morris water maze after controlled cortical impact TBI
# Procedure: Trehalose (Sigma) has a generous safety profile in rodents and humans has been posted as “Generally Regarded as Safe” (GRAS) for human consumption by the U.S. Federal Drug Administration (FDA) in October 2000, is used as a food additive, and is also an excipient in many pharmaceuticals, making trehalose a safe, natural and pharmaceutically accepted product. In this study, it was supplied as a 2% w/v in standard suspension vehicle (SSV) solution via oral gavage at a dose of 0.1 ml to 10 g body weight. SSV solution was purchased from Sigma and contains 0.9% sodium chloride (NaCl), 0.5% Sodium carboxymethylcellulose (Na-CMC), 0.5% Benzyl alcohol, 0.4%, Tween 80 (polyoxyethylenesorbitan monooleate).
# (§1) Surgical procedures and controlled cortical impact (CCI) have been previously described (see Portbury et al., 2015, Metallomics. doi:10.1039/c5mt00234f). Briefly, 3 month-old male C57B16 mice were anesthetized via intraperitoneal injection of 100 mg/kg ketamine and 10 mg/kg xylazine. A 10 mm mid-line incision was made over the skull, and the skin and fascia were reflected to make a 4 mm craniotomy on the central aspect of the right parietal bone using a motorized drill. Upon animal positioning in a stereotaxic frame a CCI injury was subsequently delivered (3 m/s velocity with a 1.5 mm penetration depth).
# (§2) Three groups of animals were subjected to TBI as separate experiments. The first group of animals were treated daily with 2% trehalose in SSV solution at 0.1 ml per 10 g body weight via oral gavage for a period of 31 days or SSV solution following the TBI. […] The second groups of animals underwent an identical dosing procedure but were treated with either SSV or maltose as a disaccharide control for trehalose. […] A further group of animals was pre-treated with trehalose prior to TBI. These pre-treated mice received a daily treatment of 2% trehalose in SSV solution at 0.1 ml per 10 g body weight via oral gavage for 7 days prior to TBI. Following TBI, these animals received SSV solution only for the remaining duration of the experiment.
# (§3) The Morris Water Maze (MWM) was used to assess the effect of trehalose on spatial learning and memory function following TBI. The pre-training acclimation day of the water maze was performed on day 23 of dosing, followed by six days of place discrimination training of four 90 second trials per day, conducted on days 24-29 of dosing. The probe trial was performed 24 hours after training on dosing day 30 to assess retention of the task. Data was analysed using the Ethovision automated tracking system. Animals were culled on day 31. Both experimental groups adhered to the same time lines of behavioral assessment. The open field assessment was performed on day 19 of dosing and the Y-maze assessment was performed on day 21 of dosing.
# (§4) For LA-ICPMS samples, statistical analysis was carried out in Prism 7 (Graph-Pad) software. Analysis was carried out with a two-tailed t test with the level of significance set at p=0.05. For multiple comparisons two-way ANOVA was used to identify significant differences between ipsilateral and contralateral ROI's. For western blot analysis, images were produced using Image Studio Lite (version 4.0.21, LI-COR Biosciences) and subsequent statistical analysis was carried out in Prism 7 (Graph-Pad). All behavioral analysis was performed using Prism 7 (Graph-Pad).
# [2] = system: mice receiving a controlled cortical impact traumatic brain injury (TBI); test: Open field assessment after TBI; conditions: treated post-TBI, dosing day 19, vs SSV control
# Procedure: as §1, §2, §3, §4
# [3] = system: mice receiving a controlled cortical impact traumatic brain injury (TBI); test: Y-maze assessment after TBI
# Procedure: as §1, §2, §3, §4
# [4] = system: mice receiving a controlled cortical impact traumatic brain injury (TBI); test: Volumetric analysis of cortical tissue loss after TBI; conditions: treated after TBI; vs controls
# Procedure: as §1, §2
# LC3 = test: Autophagy by LC3 western blot after TBI; conditions: between trehalose, SSV and maltose treated groups after TBI
# Procedure: as §2
# For the behaviorally assessed animals the cortex and hippocampus of both ipsilateral and contralateral hemispheres were homogenized in 15 volumes of ice-cold PBS containing Complete Protease Inhibitor Cocktail tablets (Roche Applied Science, Indianapolis, Ind., USA) and subsequently centrifuged (100,000×g) for 30 minutes at 4° C. Supernatant was removed to yield the soluble fraction (S1). […] Protein concentrations were determined using Pierce BCA protein assay (Pierce Biotechnology, Rockford, Ill., USA) to ensure equal loading of 10 μg protein samples on gel. […]
# synaptophysin [5] = test: Western blot of brain tissue after TBI: synaptophysin
# Procedure: as §2
# (§5) For the behaviorally assessed animals the cortex and hippocampus of both ipsilateral and contralateral hemispheres were homogenized in 15 volumes of ice-cold PBS containing Complete Protease Inhibitor Cocktail tablets (Roche Applied Science, Indianapolis, Ind., USA) and subsequently centrifuged (100,000×g) for 30 minutes at 4° C. Supernatant was removed to yield the soluble fraction (S1). Remaining pellet underwent further extraction via 30 minutes of vigorous agitation in above mentioned homogenization buffer containing 2% (vol/vol) Triton X100. Insoluble material was pelleted via centrifugation (20,000×g) for 20 minutes, and supernatant was retained as the membrane fraction (P1). Protein concentrations were determined using Pierce BCA protein assay (Pierce Biotechnology, Rockford, Ill., USA) to ensure equal loading of 10 μg protein samples on gel. Samples were prepared for PAGE by the addition of 4× protein sample loading buffer (LICOR, Lincoln, Nebr., USA) and 10× NuPAGE sample reducing agent (to a final 1× concentration). Samples were heated to 70° C. for 10 min, loaded onto Bolt 4-12% Bis-Tris Plus gels (Invitrogen-Life Technologies, Grand Island, N.Y., USA) along with Licor One-Color protein molecular weight markers (LICOR, Lincoln, Nebr., USA) and run at 125 V for 60 min in appropriately diluted Bolt MES SDS 20× running buffer (Invitrogen-Life Technologies, Grand Island, N.Y., USA). Gels were transferred to Immobilon—PF, PVDF membrane (Millipore) using the Invitrogen Bolt wet-gel Transfer Device (Invitrogen-Life Technologies, Grand Island, N.Y., USA) at 15 V for 60 min in appropriately diluted 20× Bolt transfer buffer (Invitrogen-Life Technologies, Grand Island, N.Y., USA). […] Blots were rinsed in TBST and incubated with appropriate secondary antibody (1 h, RT), followed by further rinsing and imaged using a LI-COR Odyssey Imaging system (LI-COR Biosciences, Lincoln Nebr., USA), and analysed with Image Studio Lite software (LI-COR Biosciences, Lincoln Nebr., USA). […]
# doublecortin (DCX) [6] = test: Western blot of brain tissue after TBI: doublecortin
# Procedure: as §2, §5
# Pro-BDNF = test: Western blot of brain tissue after TBI: Pro-BDNF
# Procedure: as §2
# as §5, with “concentration).” for “concentration). Samples were heated to 70° C. for 10 min, loaded onto Bolt 4-12% Bis-Tris Plus gels (Invitrogen-Life Technologies, Grand Island, N.Y., USA) along with Licor One-Color protein molecular weight markers (LICOR, Lincoln, Nebr., USA) and run at 125 V for 60 min in appropriately diluted Bolt MES SDS 20× running buffer (Invitrogen-Life Technologies, Grand Island, N.Y., USA). Gels were transferred to Immobilon—PF, PVDF membrane (Millipore) using the Invitrogen Bolt wet-gel Transfer Device (Invitrogen-Life Technologies, Grand Island, N.Y., USA) at 15 V for 60 min in appropriately diluted 20× Bolt transfer buffer (Invitrogen-Life Technologies, Grand Island, N.Y., USA).”
# [7] = system: brain derived neurotrophic factor (BDNF); test: Western blot of brain tissue after TBI: BDNF
# Procedure: as §2
# as §5, with “concentration).” for “concentration). Samples were heated to 70° C. for 10 min, loaded onto Bolt 4-12% Bis-Tris Plus gels (Invitrogen-Life Technologies, Grand Island, N.Y., USA) along with Licor One-Color protein molecular weight markers (LICOR, Lincoln, Nebr., USA) and run at 125 V for 60 min in appropriately diluted Bolt MES SDS 20× running buffer (Invitrogen-Life Technologies, Grand Island, N.Y., USA). Gels were transferred to Immobilon—PF, PVDF membrane (Millipore) using the Invitrogen Bolt wet-gel Transfer Device (Invitrogen-Life Technologies, Grand Island, N.Y., USA) at 15 V for 60 min in appropriately diluted 20× Bolt transfer buffer (Invitrogen-Life Technologies, Grand Island, N.Y., USA).”
# Tg2576 transgenic mice = test: Morris water maze in Tg2576 Alzheimer's disease model
# Procedure: Transgenic Tg2576 mice were treated daily with 2% trehalose (0.1 ml/10 g body weight) in SSV (Sigma)(n=15, average age 16.2±3 months of age) via oral gavage or SSV (saline vehicle suspension) (n=12, 16±3 months of age). Mice were dosed for a period of 31 days, with the Morris water maze commencing on day 23 of dosing. Mice were culled on day 31, and DCX and synaptophysin expression were assessed.
# synaptophysin [8] = test: Synaptophysin expression in Tg2576 brain
# Procedure: as §5, with “USA).” for “USA). Gels were transferred to Immobilon—PF, PVDF membrane (Millipore) using the Invitrogen Bolt wet-gel Transfer Device (Invitrogen-Life Technologies, Grand Island, N.Y., USA) at 15 V for 60 min in appropriately diluted 20× Bolt transfer buffer (Invitrogen-Life Technologies, Grand Island, N.Y., USA).”
# Transgenic Tg2576 mice were treated daily with 2% trehalose (0.1 ml/10 g body weight) in SSV (Sigma)(n=15, average age 16.2±3 months of age) via oral gavage or SSV (saline vehicle suspension) (n=12, 16±3 months of age). […] Mice were culled on day 31, and DCX and synaptophysin expression were assessed.
# doublecortin (DCX) [9] = test: Doublecortin expression in Tg2576 brain; conditions: Tg2576 hippocampus; vs SSV littermates
# Procedure: as §5, with “concentration).” for “concentration). Samples were heated to 70° C. for 10 min, loaded onto Bolt 4-12% Bis-Tris Plus gels (Invitrogen-Life Technologies, Grand Island, N.Y., USA) along with Licor One-Color protein molecular weight markers (LICOR, Lincoln, Nebr., USA) and run at 125 V for 60 min in appropriately diluted Bolt MES SDS 20× running buffer (Invitrogen-Life Technologies, Grand Island, N.Y., USA). Gels were transferred to Immobilon—PF, PVDF membrane (Millipore) using the Invitrogen Bolt wet-gel Transfer Device (Invitrogen-Life Technologies, Grand Island, N.Y., USA) at 15 V for 60 min in appropriately diluted 20× Bolt transfer buffer (Invitrogen-Life Technologies, Grand Island, N.Y., USA).”
# [10] = pre-treated 7 days before TBI, vs SSV littermates
# [11] = treated post-TBI, dosing day 21, vs SSV
# [12] = treated post-TBI, dosing day 21, vs SSV, listed as Trehalose
# [13] = contralateral cortex, vs SSV and maltose
# [14] = contralateral cortex, vs SSV and maltose, listed as Trehalose
# [15] = contralateral hippocampus or ipsilateral cortex and hippocampus
structure (smiles),measurement,setting,value
OC[C@H]1O[C@H](O[C@H]2O[C@H](CO)[C@@H](O)[C@H](O)[C@H]2O)[C@H](O)[C@@H](O)[C@@H]1O [trehalose],"learning component, Morris water maze","[1]; pre-treated 7 days before TBI with 2% oral gavage, SSV only after TBI, vs SSV controls","outperformed SSV controls in the learning (FIG. 1a) component of the water maze trial, although not significantly"
same,"recall component, Morris water maze","[1]; pre-treated 7 days before TBI with 2% oral gavage, SSV only after TBI, vs post-treated mice and SSV controls",significantly outperform trehalose post-treated mice and SSV controls
same,"escape latency / acquisition of the task (learning component), Morris water maze","[1]; treated post-TBI daily by oral gavage, 2% in SSV, 0.1 ml per 10 g, vs SSV controls, training on dosing days 24-29",overall significant performance improvement
same,"probe day 24-hour task retention (recall component), Morris water maze","[1]; treated post-TBI daily by oral gavage, 2% in SSV, vs SSV controls, dosing day 30",overall significant performance improvement; also recorded: significant improvement in memory
same,"ambulatory time, open field",[2],significant increase
same,"ambulatory velocity, open field",[2],no significant difference
same,"total ambulatory distance, open field",[2],significant increase
same,"vertical counts, open field",[2],significant increase
same,"ambulatory velocity, open field",[2]; listed as Trehalose,without a significant increase
same,"five-minute frequency, Y-maze",[3]; [10],performed significantly better
same,"one-minute duration, Y-maze",[3]; [10],performed significantly better
same,"one-minute frequency, Y-maze",[3]; [10],performed significantly better
same,"five-minute duration, Y-maze","[3]; pre-treated 7 days before TBI, vs post-treatment and SSV mice",significantly outperformed both the trehalose post-treatment and SSV treated mice
same,"five-minute frequency of visits into the novel arm, Y-maze",[3]; [11],significantly enhanced
same,"one-minute duration of time in the novel arm, Y-maze",[3]; [11],significantly greater duration of time in the novel arm; also recorded: significant overall duration of time in the novel arm
same,"one-minute frequency of visits into the novel arm, Y-maze",[3]; [11],significantly enhanced
same,"five-minute frequency of visits into the novel arm, Y-maze",[3]; [12],significant overall frequency of visitation preference for the novel arm
same,"one-minute frequency of visits into the novel arm, Y-maze",[3]; [12],significant overall frequency of visitation preference for the novel arm
same,cortical tissue loss,[4],no difference
same,enhancement in autophagy (LC3),LC3,not detectable
same,synaptophysin protein expression,"synaptophysin [5]; contralateral cortex, 31 days post-TBI, vs SSV and maltose controls",significantly elevated expression
same,synaptophysin protein expression,"synaptophysin [5]; contralateral cortex, 31 days post-TBI, vs SSV and maltose controls, listed as Trehalose",significantly increased
same,synaptophysin protein expression,"synaptophysin [5]; contralateral hippocampus, ipsilateral cortex and hippocampus",no significant elevation
same,synaptophysin protein expression,"synaptophysin [5]; ipsilateral hippocampus, vs control groups",non-significant elevation
same,DCX protein,"doublecortin (DCX) [6]; contralateral cortex, vs SSV and maltose controls",significant increase
same,DCX protein,"doublecortin (DCX) [6]; contralateral cortex, vs SSV and maltose controls, listed as Trehalose",significantly increases
same,DCX protein,"doublecortin (DCX) [6]; contralateral hippocampus or ipsilateral cortex and hippocampus, vs control groups",absence of elevated DCX
same,DCX expression,"doublecortin (DCX) [6]; ipsilateral cortex and hippocampus, vs SSV and maltose controls",significantly decreased
same,pro-BDNF protein,Pro-BDNF; [13],significant increase
same,pro-BDNF protein,Pro-BDNF; [14],significantly increased
same,pro-BDNF protein,Pro-BDNF; [15],not significantly elevated
same,BDNF protein,[7]; [13],significant increase
same,BDNF protein,[7]; [14],significantly increased
same,BDNF protein,[7]; [15],not significantly elevated
same,cognitive improvement in the Morris water maze,Tg2576 transgenic mice; 2% trehalose daily oral gavage for 31 days,significant cognitive improvement
same,"escape latency, Morris water maze","Tg2576 transgenic mice; 2% trehalose daily oral gavage for 31 days, vs Tg2576 SSV littermates",significant decrease
same,"time spent in the relevant quadrant, Morris water maze","Tg2576 transgenic mice; 2% trehalose daily oral gavage, vs SSV littermates",significant (p<0.0003) increase
same,synaptophysin protein expression,"synaptophysin [8]; Tg2576 cortex, trehalose vs SSV",no significant difference
same,synaptophysin protein expression,"synaptophysin [8]; Tg2576 hippocampus, vs SSV littermates",increased
same,synaptophysin protein expression,"synaptophysin [8]; Tg2576 hippocampus, vs SSV littermates, listed as Trehalose",significant increase
same,DCX protein expression,doublecortin (DCX) [9],increased; also recorded: significant (p<0.0401) increase
